Experimental data taken from patent US20100139154A1, “PROCESS FOR FERMENTIVE PREPARATION OF ALCOHOLS AND RECOVERY OF PRODUCT” (E.I. DU PONT DE NEMOURS AND COMPANY, priority 2008, published 2010).
Several values for one entry are separate records, joined by “and”; a condition that tells them apart may be missing. Equal entries are not always repeated.

Columns and labels:
[1] = tested on: Lactobacillus fermentum (ATCC 14931); assay: Glucose Uptake Index (GUI) of Lactobacillus fermentum culture with 5% v/v ionic liquid; format: cell-based; conditions: MRS medium, 16 hours, 30° C., paired control GUI 99.8, 26.5 or 94.6
[2] = tested on: Lactobacillus zeae (ATCC 15820); assay: Glucose Uptake Index (GUI) of Lactobacillus zeae culture with 5% v/v ionic liquid
Method: This media was made per bottle instructions using sterilized water, and was then again filter sterilized before use. The test tubes were incubated at 30° C. at 175 rpm in an Inova Incubator (Karlsbad, Sweden). After 24 hours, the test tubes were removed and stored at 4° C.
A portion (50 μL) of each stock culture prepared as above was inoculated into separate 15 mL sterile polypropylene culture tubes containing fresh MRS medium (3 mL). These tubes were incubated for four hours at 30° C. at 175 rpm. After four hours, one of these culture tubes was inoculated with 150 μL (5% v/v) of each of the ionic liquids as listed in Table 1 below. […] Each tube that was inoculated with an ionic liquid was also paired with a tube that received no ionic liquid and was used as a control.
All culture tubes were then incubated again under the same conditions for another 16 hours. After 16 hours, the culture tubes were stored at −80° C. Analytical samples were taken from each culture tube by thawing the samples and spinning them at 28,000 rpm and 20° C. for ten minutes in a Sorvall Instruments RC3C (Newtown Conn.) centrifuge. One milliliter of supernatant was removed from each tube and was subjected to high performance liquid chromatography (HPLC) analysis using an Agilent (Palo Alto Calif.) HPLC 1100 with a BioRad Aminex 87-H using 0.008 N sulfuric acid with both diode array and refractive index detection, and an Agilent HPLC 1100 with a Shodex OH-pak column using 0.01 N sulfuric acid. Data analysis was performed using the Agilent Chemstation software and Microsoft Excel.
The glucose uptake index was calculated by taking the total glucose consumed in a fermentation sample, whether or not the sample contained an ionic liquid, and dividing it by the total initial glucose present in the broth at the start of fermentation.

[3] = Extraction of ethanol from an aqueous solution by ionic liquid, HPLC; format: physicochemical; conditions: concentration in aqueous solution after overnight equilibration with 5 vol % ionic liquid; control 684 mM
Method: (§1) Ethanol and isobutanol concentration in the solution was measured using HPLC as described above following thorough mixing and overnight equilibration of the contents of the vial.

[4] = Extraction of isobutanol from an aqueous solution by ionic liquid, HPLC; format: physicochemical; conditions: concentration in aqueous solution after overnight equilibration with 5 vol % ionic liquid; control 416 mM
Method: as §1

1-ethyl-3-methylimidazolium bis(trifluoromethylsulfonyl)imide [[EMIM] [Tf2N]]
GUI of Sample (Glucose Utilization Index in the presence of 5% (v/v) of the ionic liquid phase) [1]: 54.5 | GUI of Sample (Glucose Utilization Index in the presence of 5% (v/v) of the ionic liquid phase) [2]: 51.2 | Ethanol [3]: 670 mM | Isobutanol [4]: 389 mM

CCCCn1cc[n+](C)c1.F[P-](F)(F)(F)(F)F [[BMIM] [PF6], 1-butyl-3-methylimidazolium hexafluorophosphate]
GUI of Sample (Glucose Utilization Index in the presence of 5% (v/v) of the ionic liquid phase) [1]: 88.3

3-methyl-1-propylpyridinium bis(trifluoromethylsulfonyl)imide [[PMPy] [Tf2N]]
GUI of Sample (Glucose Utilization Index in the presence of 5% (v/v) of the ionic liquid phase) [1]: 26.1 | GUI of Sample (Glucose Utilization Index in the presence of 5% (v/v) of the ionic liquid phase) [2]: 63.5

1-butyl-3-methylimidazolium 1,1,2,3,3,3-hexafluoropropanesulfonate [[BMIM] [HFPS]]
GUI of Sample (Glucose Utilization Index in the presence of 5% (v/v) of the ionic liquid phase) [1]: 8.0 and 11.5

1-ethyl-3-methylimidazolium bis(pentafluoroethylsulfonyl)imide [[EMIM] [BEI]]
GUI of Sample (Glucose Utilization Index in the presence of 5% (v/v) of the ionic liquid phase) [1]: 25.5 | GUI of Sample (Glucose Utilization Index in the presence of 5% (v/v) of the ionic liquid phase) [2]: 36.0

1-butyl-3-methylpyrrolidinium bis(trifluoromethylsulfonyl)imide [[BMP] [Tf2N]]
GUI of Sample (Glucose Utilization Index in the presence of 5% (v/v) of the ionic liquid phase) [1]: 0.96 | GUI of Sample (Glucose Utilization Index in the presence of 5% (v/v) of the ionic liquid phase) [2]: 49.8 | Ethanol [3]: 676 mM | Isobutanol [4]: 391 mM

1-butyl-3-methylimidazolium bis(trifluoromethylsulfonyl)imide [[BMIM] [Tf2N]]
GUI of Sample (Glucose Utilization Index in the presence of 5% (v/v) of the ionic liquid phase) [1]: 26.8

tetradecyl(tri-n-hexyl)phosphonium 1,1,2-trifluoro-2-(perfluoroethoxy)ethanesulfonate [[6,6,6,14-P] [TPES]]
GUI of Sample (Glucose Utilization Index in the presence of 5% (v/v) of the ionic liquid phase) [1]: 92.8 | GUI of Sample (Glucose Utilization Index in the presence of 5% (v/v) of the ionic liquid phase) [2]: 62.8

CCCCn1cc[n+](C)c1.F[B-](F)(F)F [[BMIM] [BF4], 1-butyl-3-methylimidazolium tetrafluoroborate]
GUI of Sample (Glucose Utilization Index in the presence of 5% (v/v) of the ionic liquid phase) [1]: 9.74

1-butyl-3-methylimidazolium 1,1,2-trifluoro-2-(trifluoromethoxy)ethanesulfonate [[BMIM] [TTES]]
GUI of Sample (Glucose Utilization Index in the presence of 5% (v/v) of the ionic liquid phase) [1]: 16.2

CCCCCCn1cc[n+](C)c1.FC(F)(F)C(F)(F)[P-](F)(F)(F)(C(F)(F)C(F)(F)F)C(F)(F)C(F)(F)F [[HMIM] [FAP], 1-hexyl-3-methylimidazolium tris(pentafluoroethyl)trifluorophosphate]
GUI of Sample (Glucose Utilization Index in the presence of 5% (v/v) of the ionic liquid phase) [1]: 84.7 | Ethanol [3]: 680 mM | Isobutanol [4]: 404 mM

1-butyl-3-methylimidazolium 2-(1,2,2,2-tetrafluoroethoxy)-1,1,2,2-tetrafluoroethanesulfonate [[BMIM] [FS]]
GUI of Sample (Glucose Utilization Index in the presence of 5% (v/v) of the ionic liquid phase) [1]: 24.0

1-butyl-3-methylimidazolium 1,1,2-trifluoro-2-(perfluoroethoxy)ethanesulfonate [[BMIM] [TPES]]
GUI of Sample (Glucose Utilization Index in the presence of 5% (v/v) of the ionic liquid phase) [1]: 7.21

1-hexyl-3-methylimidazolium bis(trifluoromethylsulfonyl)imide [[HMIM] [Tf2N]]
GUI of Sample (Glucose Utilization Index in the presence of 5% (v/v) of the ionic liquid phase) [1]: 19.5 | GUI of Sample (Glucose Utilization Index in the presence of 5% (v/v) of the ionic liquid phase) [2]: 66.2 | Ethanol [3]: 678 mM | Isobutanol [4]: 388 mM
